The results in this text go back to patent US7348427B2, “Antipathogenic benzamide compounds” (Genesoft Pharmaceuticals, Inc., priority 2001, dated 2008).

Bounds are passed on as bounds.

For assay [1], the system named is Bacillus cereus (ATCC 11778). Put plainly: MIC, NCCLS broth microdilution assay. The format is cell-based. As to conditions: A = B. cereus ATCC 11778. An outline of the steps:
(§1)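 Activity is measured as MIC in microtiter broth microdilution under NCCLS M7-A4, M11-A4 and M27-T guidance, with the yeast tested by the method in Murray's Manual of Clinical Microbiology.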

In assay [2] the test system is Staphylococcus epidermidis (ATCC 12228). Put plainly: MIC, NCCLS broth microdilution assay. The class given is cell-based. The conditions noted are these: G = S. epidermidis ATCC 12228. An outline of the steps: as §1
Background: Broth dilution looks for growth in wells or tubes with falling amounts of substance.

The subject of assay [3] is Enterococcus faecium (ATCC 51559, a vancomycin resistant strain (VRE)). Put plainly: MIC, NCCLS broth microdilution assay. As to conditions: D = E. faecium ATCC 51559. The format is cell-based. An outline of the steps:
as §1

Assay [4] relates to Staphylococcus aureus (ATCC 13709, a methicillin sensitive strain (MSSA)). Put plainly: MIC, NCCLS broth microdilution assay. As to conditions: E = S. aureus ATCC 13709. The class given is cell-based. The procedure, abridged:
as §1

Assay [5] relates to Staphylococcus aureus (ATCC 27660, a methicillin resistant strain (MRSA)). Put plainly: MIC, NCCLS broth microdilution assay. The class given is cell-based. The conditions noted are these: F = S. aureus ATCC 27660. The procedure, abridged: as §1
For assay [6], the system named is Streptococcus pneumoniae (ATCC 51422, a penicillin resistant strain (PRSP)). Put plainly: MIC, NCCLS broth microdilution assay. The format is cell-based. The conditions noted are these: I = S. pneumoniae ATCC 51422. The procedure, abridged:
as §1

For another assay, the system named is E. faecalis ATCC 29212. Put plainly: MIC, NCCLS broth microdilution assay. The format is cell-based, Enterococcus faecalis. As to conditions: C = E. faecalis ATCC 29212. An outline of the steps: (§2)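 MICs were determined by NCCLS broth microdilution following documents M7-A4 and M11-A4 (1997).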
The subject of assay [7] is Candida albicans (ATCC 38247). Put plainly: Antifungal MIC assay. As to conditions: B = C. albicans ATCC 38247. The class given is cell-based. An outline of the steps:
as §1

A further assay has as its system S. pneumoniae ATCC 49619. Put plainly: MIC, NCCLS broth microdilution assay. As to conditions: H = S. pneumoniae ATCC 49619. The format is cell-based, Streptococcus pneumoniae. An outline of the steps: as §2
Setting [8] is: Staphylococcus aureus, read-out: Minimum Inhibitory Concentration (MIC).

For `Cn1cc(NC(=O)c2cc(NC(=O)c3ccc(Cl)cc3F)c[nH]2)cc1C(=O)NCCN1CCC(F)(F)CC1` [Compound A-22], the “Minimum Inhibitory Concentration (MIC)” value in [1], in assay [2], in assay [3], in assay [4], in assay [5] and in [6] was “+++ (+++ = MIC ≦ 4)” throughout. The “Minimum Inhibitory Concentration (MIC)” value is “+++ (+++ = MIC ≦ 4)” with E. faecalis ATCC 29212, over 32 µg/mL in assay [7] and “+++ (+++ = MIC ≦ 4)” in the assay with S. pneumoniae ATCC 49619.
On to `Cn1cc(NC(=O)c2cc(NC(=O)c3cc(NC(=O)c4ccc(Cl)cc4F)c[nH]3)cn2C)cc1C(=O)NCC[N+]1(C)CCOCC1` [Compound A-28], for which the MIC in assay [1] (Bacillus cereus, ATCC11778, read-out: Minimum Inhibitory Concentration (MIC)) was at most 4 µg/mL; in [2] (Staphylococcus epidermidis, ATCC12228, read-out: Minimum Inhibitory Concentration (MIC)) it was at most 4 µg/mL; in assay [3] (Enterococcus faecium, read-out: Minimum Inhibitory Concentration (MIC)) it was 12 to 32 µg/mL; in assay [4] (setting [8]), at most 4 µg/mL; in assay [5] (setting [8]), at most 4 µg/mL; in assay [6] (Streptococcus pneumoniae, read-out: Minimum Inhibitory Concentration (MIC)), at most 4 µg/mL. For the same compound, the MIC in the assay with E. faecalis ATCC 29212 (Enterococcus faecalis, ATCC29212, read-out: Minimum Inhibitory Concentration (MIC)) is 4 to 12 µg/mL; in assay [7] (Candida albicans, ATCC38247, read-out: Minimum Inhibitory Concentration (MIC)) it was at most 4 µg/mL; in the assay with S. pneumoniae ATCC 49619 (Streptococcus pneumoniae, ATCC49619, read-out: Minimum Inhibitory Concentration (MIC)) it was at most 4 µg/mL.
As for `Cn1cc(NC(=O)c2cc(NC(=O)c3cc(NC(=O)c4ccc(F)cc4F)cn3C)cn2C)cc1C(=O)NCCN1CCOCC1` [Compound B-1], the “Minimum Inhibitory Concentration (MIC)” value in assay [1], in assay [2], in assay [3], in [4], in assay [5] and in assay [6] was “+++ (+++ = MIC ≦ 4)” throughout. For the same compound, the “Minimum Inhibitory Concentration (MIC)” value in the assay with E. faecalis ATCC 29212 is “+++ (+++ = MIC ≦ 4)”; in [7] it was over 32 µg/mL; in the assay on S. pneumoniae ATCC 49619, “+++ (+++ = MIC ≦ 4)”.
As for `Cn1cc(NC(=O)c2cc(NC(=O)c3cc(NC(=O)c4ccc(F)cc4F)cn3C)cn2C)cc1C(=O)NCCN1CCSCC1` [Compound B-3], the “Minimum Inhibitory Concentration (MIC)” value is on record as “+++ (+++ = MIC ≦ 4)” in assay [1]; “+++ (+++ = MIC ≦ 4)” in assay [2]; “+ (+ = 12 ≦ MIC ≦ 32)” in assay [3]; “+++ (+++ = MIC ≦ 4)” in [4]; “+++ (+++ = MIC ≦ 4)” in assay [5]; “+++ (+++ = MIC ≦ 4)” in assay [6]. For the same compound, the “Minimum Inhibitory Concentration (MIC)” value with E. faecalis ATCC 29212 is “+++ (+++ = MIC ≦ 4)”; in assay [7], over 32 µg/mL; in the assay with S. pneumoniae ATCC 49619, “+++ (+++ = MIC ≦ 4)”.
With `Cn1cc(NC(=O)c2cc(NC(=O)c3ccc(F)cc3F)cn2C)cc1C(=O)NCCN1CCSCC1` [Compound B-11], the “Minimum Inhibitory Concentration (MIC)” value in [1], in assay [2], in assay [3], in assay [4], in assay [5] and in assay [6] was “+++ (+++ = MIC ≦ 4)” in each case. Also, the “Minimum Inhibitory Concentration (MIC)” value was “+++ (+++ = MIC ≦ 4)” in the assay with E. faecalis ATCC 29212, over 32 µg/mL in assay [7] and “+++ (+++ = MIC ≦ 4)” in the assay with S. pneumoniae ATCC 49619.
For the compound `Cn1cc(NC(=O)c2cc(NC(=O)c3cc(NC(=O)c4ccc(F)cc4F)cn3C)cn2C)cc1C(=O)NCCc1ccncc1` [Compound B-22], the “Minimum Inhibitory Concentration (MIC)” value in assay [1], in assay [2], in assay [3], in assay [4], in assay [5] and in [6] was “+++ (+++ = MIC ≦ 4)” each time. The “Minimum Inhibitory Concentration (MIC)” value with E. faecalis ATCC 29212 is “+++ (+++ = MIC ≦ 4)”; in assay [7], over 32 µg/mL; in the assay with S. pneumoniae ATCC 49619, “+++ (+++ = MIC ≦ 4)”.
On to `Cn1cc(NC(=O)c2cc(NC(=O)c3cc(NC(=O)c4ccc(F)cc4F)cn3C)cn2C)cc1C(=O)NCCc1cccnc1` [Compound B-24], for which the “Minimum Inhibitory Concentration (MIC)” value in [1], in assay [2], in assay [3], in assay [4], in assay [5] and in assay [6] was “+++ (+++ = MIC ≦ 4)” throughout. The “Minimum Inhibitory Concentration (MIC)” value in the assay with E. faecalis ATCC 29212 was “+++ (+++ = MIC ≦ 4)”; in [7], over 32 µg/mL; in the assay with S. pneumoniae ATCC 49619, “+++ (+++ = MIC ≦ 4)”.
As to `Cn1cc(NC(=O)c2ccc(F)cc2F)cc1C(=O)Nc1cc(C(=O)Nc2cc(C(=O)N3CCC(O)CC3)n(C)c2)n(C)c1` [Compound B-26], the “Minimum Inhibitory Concentration (MIC)” value in assay [1], in assay [2], in [3], in assay [4], in assay [5] and in [6] was over 32 µg/mL each time. For the same compound, the “Minimum Inhibitory Concentration (MIC)” value (in the assay with E. faecalis ATCC 29212; in [7]; in the assay with S. pneumoniae ATCC 49619) was over 32 µg/mL throughout.
Turning to `Cn1cc(NC(=O)c2cc(NC(=O)c3cc(NC(=O)c4ccc(F)cc4F)cn3C)cn2C)cc1C(=O)NCCN1CCC(F)(F)CC1` [Compound B-27], the “Minimum Inhibitory Concentration (MIC)” value in assay [1], in assay [2], in [3], in assay [4], in [5] and in [6] was “+++ (+++ = MIC ≦ 4)” in each case. In addition, the figures for the “Minimum Inhibitory Concentration (MIC)” value (in the assay on E. faecalis ATCC 29212; in assay [7]; in the assay on S. pneumoniae ATCC 49619) were “+++ (+++ = MIC ≦ 4)”, over 32 µg/mL and “+++ (+++ = MIC ≦ 4)”, respectively.
`Cn1cc(NC(=O)c2cc(NC(=O)c3cc(NC(=O)c4ccccc4F)cn3C)cn2C)cc1C(=O)NCCN1CCSCC1` [Compound B-41]: the “Minimum Inhibitory Concentration (MIC)” value in [1], in assay [2], in [3], in assay [4], in [5] and in assay [6] was “+++ (+++ = MIC ≦ 4)” in each case. Besides, the “Minimum Inhibitory Concentration (MIC)” value is “+++ (+++ = MIC ≦ 4)” in the assay on E. faecalis ATCC 29212, over 32 µg/mL in assay [7] and “+++ (+++ = MIC ≦ 4)” in the assay on S. pneumoniae ATCC 49619.
In the case of `Cn1cc(NC(=O)c2cc(NC(=O)c3ccc(Cl)cc3F)cn2C)cc1C(=O)NCCN1CCOCC1` [Compound B-48], the “Minimum Inhibitory Concentration (MIC)” value in assay [1] was “+++ (+++ = MIC ≦ 4)”; in assay [2], “+++ (+++ = MIC ≦ 4)”; in [3] it was “+++ (+++ = MIC ≦ 4)”; in [4], “+++ (+++ = MIC ≦ 4)”; in assay [5] it was “++ (++ = 4 < MIC < 12)”; in [6], “+++ (+++ = MIC ≦ 4)”. For the same compound, the “Minimum Inhibitory Concentration (MIC)” value with E. faecalis ATCC 29212 was “+++ (+++ = MIC ≦ 4)”; in [7], over 32 µg/mL; in the assay with S. pneumoniae ATCC 49619 it was “+++ (+++ = MIC ≦ 4)”.
